According to patent publication US5747503A, “Selective inhibitors of biogenic amine transporters” (priority 1996, dated 1998):
Entries after “also recorded” stand apart in the source; their conditions may differ. Read-outs that look alike come from different tables or passages of the source.

Columns and labels:
[1] = system: NMDA receptor; assay: NMDA-induced current in cultured hippocampal neurons, whole-cell recording; format: cell-based, rat; conditions: for IC50: Table 2
Protocol: Whole-cell recordings of NMDA-induced currents in cultured rat hippocampal neurons were carried out as described previously (Subramaniam, S., et al. Neurosci. Lett. 147: 213-216 (1992)). Hippocampal neurons grown in primary culture from 19-day-old Sprague-Dawley rat embryos were used 7-14 days after plating. The extracellular recording solution consisted of (in mM): 140 NaCl, 5 KCl, 0.1 CaCl2, and 10 HEPES (osmolality, 315-325 mOsm; pH, 7.4). Tetrodotoxin (1 μM) and strychnine (1 μM) were added to block Na+channel currents and glycine-activated Cl^- currents, respectively. Patch pipettes (2-5 M.OMEGA.) were prepared from filament-containing thin wall glass capillary tubes and filled with an intracellular solution that consisted of (in mM): 145 CsCl, 2 MgCl2, 5 HEPES, 0.1 CaCl2, and 1 EGTA (osmolality, 310 mOsm; pH, 7.4). Drugs were dissolved in recording solution and applied via a rapid gravity-fed perfusion system. Flow of the drug solutions was regulated by a microvalve operated by a programmable controller.
(§1) Inhibition curves were fit to the two parameter logistic equation for the best-fit estimates of the IC50 using nonlinear least squares curve fitting methods as previously described (Rothman et al. (1993), supra); Jones, S. M. and Rogawski, M. A. Mol. Neuropharmacol. 2: 303-310 (1992)).

[2] = system: [^3 H]5-HT uptake; assay: Synaptosomal [^3 H]5-HT uptake inhibition; format: biochemical, rat; conditions: for IC50: Table 2, nM ± SD, whole rat brain minus cerebellum synaptosomes
Protocol: Synaptosomal uptake assays were carried out as described (Rothman et al. (1993), supra). Briefly, synaptosomes were prepared by homogenization of rat striatum (for [^3 H]DA reuptake) or whole rat brain minus cerebellum (for [^3 H]5-HT reuptake) in ice-cold 10% sucrose, using a Potter-Elvehjem homogenizer. After a 1000×g centrifugation for 10 min at 4° C., the supernatants were retained on ice. The uptake assays were initiated by the addition of 100 μl of synaptosomes to 12×75 mm polystyrene test tubes, which were prefilled with 750 μl of [^3 H]ligand (2 nM [^3 H]5-HT or 5 nM [^3 H]DA) in a Krebs-phosphate buffer (pH 7.4), which contained ascorbic acid (1 mg/ml) and pargyline (50 μM) (buffer), 100 μl of test drugs made up in buffer containing 1 mg/ml bovine serum albumin, and 50 μl of buffer. The [^3 H]5-HT reuptake experiments were conducted in the presence of 100 nM nomifensine and […] GBR12935 in order to block any possible reuptake into NE and DA nerve terminals. […] The nonspecific uptake of each [^3 H]ligand was measured by incubations in the presence of 1 μM GBR12909 ([^3 H]DA) and 10 μM fluoxetine ([^3 H]5-HT). The incubations were terminated after a 15 min ([^3 H]DA) or 30 min ([^3 H]5-HT) incubation at 25° C. by adding 4 ml of wash buffer (10 mM TRIS-HCl, pH 7.4 containing 0.9% NaCl at 25° C.), followed by rapid filtration over Whatman GF/B filters and one additional wash cycle. […] The Krebs-phosphate buffer contained 154.5 mM NaCl, 2.9 mM KCl, 1.1 mM CaCl2, 0.83 mM MgCl2 and 5 mM glucose. The tritium retained on the filters was counted, in a Taurus beta counter, after an overnight extraction into ICN Cytoscint cocktail.
as §1
Synaptosomal uptake and ligand binding assays were conducted as described
above. Preliminary experiments were conducted to determine the doserange
Each [^3 H] ligand was displaced
by 10 concentrations of test drug. The data of two experiments were
pooled, and fit to the two parameter logistic equation for the bestfit
estimates of the IC50 reported above.

[3] = system: PCP site 2; format: binding, guinea pig
Protocol: Large batches of frozen membranes were prepared with minor modifications of published procedures (Rothman, et al. (1989), supra). Twenty to thirty frozen guinea pig brains with cerebellum were thawed for 15 minutes and homogenized with a Polytron in ice-cold 5 mM Tris-HCl, pH 8.0 (10 ml/brain). The homogenate was centrifuged at 37,000×g for 10 minutes, and the pellet was washed by resuspension in the same volume of buffer followed by recentrifugation. The pellets were resuspended in an equal volume of 5 mM Tris-HCl, pH 8.0, and the concentration was adjusted to 50 mM by the addition of 1M Tris-HCl, pH 8.0. The homogenate was centrifuged for 10 min at 37,000×g. The pellets were then washed three times by resuspension and centrifugation using 50 mM Tris-HCl, pH 8.0. The final pellets were resuspended in the Tris-HCl buffer (0.5 ml/brain), pooled and 1 ml aliquots were distributed to microfuge tubes, which were stored at -70° for assay.
The [^3 H]TCP binding assay for PCP site 2 was conducted with minor modifications of published protocols (Rothman, et al. (1989), supra). Briefly, 12×75 mm polystyrene test tubes were prefilled with 100 μl of [^3 H]TCP (2 nM final concentration) in a protease inhibitor cocktail (PIC) containing 5000 nM (+) -MK801, 100 μl of distilled H2 O or drug (in distilled H2 0), 50 μl of buffer (5 mM Tris-HCL, pH 8.0), and 750 μl of membrane (0.5-1.0 mg/ml protein, in 5 mM Tris-HCl, pH 8.0). […] The protease inhibitor cocktail was composed of 25 μg/ml leupeptin, 25 μg/ml chymostatin, 0.1 mM EDTA, and 0.1 mM ethylene glycol-bis-(beta-aminoethyl-ether)-N,N,N',N'-tetraacetic acid (EGTA). The incubation time was 18-24 hours at 4° C. (steady state) in a final volume of 1 ml. Triplicate samples were filtered with an MR24 Brandel Cell Harvester and washed with two 5 ml aliquots of ice cold buffer. Whatman GF/B filters were presoaked in buffer containing 2% polyethylenimine. The tritium retained on the filters was measured using a Taurus scintillation counter at 44% efficiency after an overnight extraction into ICN Cytoscint cocktail. Non specific binding was determined using 10 μM of TCP. Protein was determine using the method of Lowry, et al., supra.
as §1
^a The binding assays for PCP (site 2) and PCP (site 1) were conducte
as previously reported (Rothman, R. B., et al., In: Multiple Sigma and PC
Receptor Ligands: Mechanisms for Neuromodulation and Protection 307-330
(Domino, E. F. and Kamenka, J. M., eds., 1992) using [^3 H]TCP in the
presence of (+)MK801 for site 2 and [^3 HMK801 for site 1 except that
the [^3 H]TCP assays were terminated after 18-24 hours of incubation

[4] = system: extracellular dopamine in the nucleus accumbens; conditions: literature; cited from earlier work
[5] = Table 1, [^3 H]TCP in presence of (+)MK801, 18-24 hours at 4° C.

SMILES | inhibition of NMDA-induced current responses in words [1] | IC50 [1] | [^3 H]5-HT uptake inhibition in words [2] | IC50 [2] | affinity/selectivity for PCP site 2 in words [3] | IC50 [3, 5] | IC50 ([3]; Table 2, nM ± SD) | IC50 ([3]; Table 3, guinea pig membranes) | affinity/selectivity for PCP site 2 in words ([3]; listed as 3b) | effect on extracellular DA levels [4] | IC50 [3]
CN1[C@H](Cc2ccccc2)C[C@H]2Cc3ccccc3[C@H]21 (relative stereo) [RTI-4793-14, (2RS, 3aSR, 8aRS)-1,2,3a,8,8a-Hexahydro-2-benzyl-1-methyl-indeno[1,2-b]pyrrole] | low potency; also recorded: very low potency inhibitor | 768000 nM | moderate potency | 1020 ± 72 nM | high affinity and selectivity; also recorded: highest affinity for PCP site 2 of any of the drugs tested | 37.9 nM | 37.9 ± 5.7 nM | 37.9 ± 5.7 nM | potent and selective ligand for site 2 |  | 
c1ccc(C2(N3CCCCC3)CCCCC2)cc1 [PCP, phencyclidine] |  |  |  | 1420 nM | approximately the same potency at both sites; also recorded: moderate and about equal affinity for PCP site 1 and PCP site 2 | 92.4 ± 7 nM | 92.4 ± 7 nM |  |  | increase extracellular DA levels | 
CNC1CC(c2ccc(Cl)c(Cl)c2)c2ccccc21 (stereo not shown) [Indatraline] | very low potency | 95000 nM | potently inhibited; also recorded: potent inhibitor | 4.49 ± 0.21 nM |  |  | 2530 ± 485 nM |  |  | increase extracellular DA levels | 2500 nM
C[C@]12N[C@H](Cc3ccccc31)c1ccccc12 [(+)-MK801] |  |  | negligible affinity | > 4700 nM |  | 15900 nM | > 10000 nM |  |  |  | 
